Laboratory results published in publication PMC7018657, “Molecular Determinants of Substrate Selectivity of a Pneumococcal Rgg-Regulated Peptidase-Containing ABC Transporter” (mBio, 2020).

How the values were obtained:
Format in all cases: cell-based, Streptococcus pneumoniae R6
Conditions in all cases: signal sequence (wild type or mutated) fused to BlpI-HiBiT cargo peptide; R6; CDM+; CSP, BlpC and RtgSA-C10 treatment; 3 independent experiments
ComAB = assay: HiBiT peptide secretion assay, ComAB+ strain
Method: (§1) FIG 5 RtgAB secretes different GG peptides from ComAB and BlpAB. R6 ComAB^−/BlpAB^−/RtgAB^− and single-transporter-positive ComAB^+, BlpAB^+, and RtgAB^+ strains expressing RtgC-HiBiT (A), RtgG-HiBiT (B), or BlpI-HiBiT (C) were grown in CDM+ to an OD620 of 0.05 and treated with 200 ng/ml CSP, 200 ng/ml BlpC, and 20 nM RtgSA-C10. Samples were taken every 30 min, and extracellular HiBiT signal was quantified. Data are presented as fold change values relative to the ComAB^−/BlpAB^−/RtgAB^− control. Red dashed lines represent fold change = 1 (no difference versus the control). Plots show means ± SEs from 3 independent experiments.
(§2) Cells were inoculated from starter cultures to an OD620 of 0.005 and grown in CDM+. […] Samples were taken for HiBiT quantification at appropriate time points. […] HiBiT signal was quantified by mixing samples with HiBiT extracellular detection reagent (N2421; Promega) at a 1:1 ratio and reading luminescence with a Synergy HTX plate reader. Samples were also taken for quantification of intracellular peptide; for endpoint assays, they were taken concurrently with the extracellular samples, and for time course assays, they were taken at the last time point. Extracellular peptide was removed from these samples by proteinase K digestion, and then the cells were lysed and HiBiT signal was quantified as described above. […]
(§3) and read 5 min following reagent addition. […]

BlpAB = assay: HiBiT peptide secretion assay, BlpAB+ strain
Method: as §1, §2, §3

RtgAB = assay: HiBiT peptide secretion assay, RtgAB+ strain
Method: FIG 3 RtgAB secretes RtgC and RtgG. R6 ComAB^−/BlpAB^−/RtgAB^− and ComAB^−/BlpAB^−/RtgAB^+ strains expressing RtgC-HiBiT (A) or RtgG-HiBiT (B) were grown in CDM+ to an OD620 of 0.05 and treated with 200 ng/ml CSP, 200 ng/ml BlpC, and 20 nM RtgSA-C10. CSP and BlpC were added to allow for comparison with ComAB^+ and BlpAB^+ strains in later experiments. Samples were taken every 30 min, and extracellular HiBiT signal was quantified. Data are presented as fold change values relative to the ComAB^−/BlpAB^−/RtgAB^− control. Red dashed lines represent fold change = 1 (no difference versus the control). […]
FIG 5 RtgAB secretes different GG peptides from ComAB and BlpAB. […] Samples were taken every 30 min, and extracellular HiBiT signal was quantified. […]
as §2, with “point.” for “point. Extracellular peptide was removed from these samples by proteinase K digestion, and then the cells were lysed and HiBiT signal was quantified as described above.”
as §3

## MELILPNNYVDLEQEEMMYLDGG [SSRtgG]
ComAB
  secretion through ComAB, BlpI cargo peptide: preventing its secretion through ComAB and BlpAB
BlpAB
  secretion through BlpAB, BlpI cargo peptide: preventing its secretion through ComAB and BlpAB
RtgAB
  secretion through RtgAB, BlpI cargo peptide: promotes secretion of the BlpI cargo peptide through RtgAB
